Measured values: PubChem BioAssay AID179 (DTP/NCI, 2004)
Several values for one entry are separate records, joined by “and”; a condition that tells them apart may be missing. Identical values can stand only once. Activity calls are given as the source filed them.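 Rule for the calls: active = compounds giving half or more protection of infected cells from virus-caused growth loss, again on retest; inactive = the rest.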 Where a SMILES comes first, the peptide text is derived from it. [ ]: non-standard residue; d: D form. The star is where a group is joined. Phe(4-NO2) = N[CH](Cc1ccc([N+](=O)[O-])cc1)C(=O)O; Boc = CC(C)(C)OC(=O)*

Test system: CEM cells HIV-1 protection, formazan growth assay
Experiment: NCI AIDS Antiviral Assay
Conditions: for IC50: measured here: growth of uninfected CEM cells
How it was run: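 Protection of CEM cells against HIV-1 was scored from cell growth (soluble formazan) across five concentrations, with parallel uninfected cells. Lack of protection may reflect toxicity.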

Structure (SMILES) | EC50 [µM] | IC50 | outcome
O=C(NCCCNCCCCNCCCNC(=O)c1cc(-c2ccccc2)nc2ccccc12)c1cc(-c2ccccc2)nc2ccccc12 | > 20 | 3.8 µM | –
COc1ccc(OC)c(NC(=O)C(=O)NNC(=O)c2sc(NNC(C)=O)nc2C)c1 | – | – | inactive
C=C(C)CNC1=C(C)C(=O)C2=C(C1=O)[C@H](COC(N)=O)[C@]1(OC)[C@@H]3N[C@@H]3CN21 | > 200 | 14.5 µM | –
CC(=O)/C(=C(/Br)I)c1ccccc1 | – | – | inactive
COc1ccc2nc(CC(C)C)c3c(c2c1)-c1ccccc1C3=O | > 11.2 | > 11.2 µM | –
COc1cc2c(c(OC)c1O)C(=O)CC(c1ccc(O)cc1)O2 (stereo not given) | > 200 | 21.9 µM | –
NC1CCC(C(=O)C2CCC(O)CC2O)CC1 (stereo not given) | > 200 | 18.2 µM | –
CC1CC2(C)ON=C(c3ccccc3)N2c2ccccc2S1 (stereo not given) | – | – | inactive
CCCCN(CCCC)C(=O)C(=O)CC(=O)/C=C/c1ccccc1 | > 288 | > 288 µM | –
c1ccc(-c2nnc(-c3ccccn3)c3c2C[C@@H]2C[C@@H]4Cc5c(-c6ccccn6)nnc(-c6ccccn6)c5[C@@H]4[C@H]32)nc1 | > 200 | > 200 µM | –
CCCCCCCCCCCCCCCCCCOCC(CCP(=O)(CP(=O)(O)O)Oc1ccccc1)OCCCCCCCCCCCCCCCCCC (stereo not given) | – | – | inactive
O=[N+]([O-])c1ccc2[nH]c(=S)n(/C=C(/c3ccc(Cl)cc3Cl)S(=O)(=O)Cc3ccc(Cl)cc3Cl)c2c1 | > 200 | 170 µM | –
COC(=O)C(=O)C(C(=O)C(=O)Nc1ccc(C)cc1C)c1nc2ccccc2[nH]c1=O (stereo not given) | > 23.4 | > 23.4 µM | –
Cc1nc(-c2ccccc2)cc2c1c(=O)oc1ccccc12 | > 5.01 | > 5.01 µM | –
C=CCN(N=O)C(=O)N(CCCCC(NC(C)=O)C(=O)NCc1ccccc1)Cc1ccccc1 (stereo not given) | > 28.2 | > 28.2 µM | –
C/C(=C\[C@H]1C[C@@H]([C@@H]2CC[C@]34C[C@]23C=C[C@@H]2[C@@]3(C)CC=C5C[C@@H](c6ccccc6)OC[C@]5(C)[C@@H]3C[C@@H](O)[C@]24C)C(=O)O1)CO | > 200 | 1.1 µM | –
COc1cc(-c2c(C)c(C)nc(OC)c2C#N)cc(OC)c1OC | 22.9 | > 100 µM | –
CCCCCCCCCCCCCCCCP(=O)(O)OP(=O)(O)OCC1OC(n2cnc3c(N)ncnc32)C(O)C1O (stereo not given) | > 100 | 19.5 µM | –
Cc1nc(N)nc(N)c1CCCc1ccccc1 | – | – | inactive
COc1ccc2c(c1)CCC(c1ccccc1)=C2c1ccc(OCCN2CCCC2)cc1 | > 200 | 3.72 µM | –
O=C(Nc1cccc(F)c1)c1c(O)[nH]c(=S)[nH]c1=O | > 5.13 | > 5.13 µM | –

Structure (SMILES) | EC50 [µM] | IC50 | outcome
CSc1nnc2n(C)c3c(=O)n(C)c(=O)n(C)c3n12 | > 200 | > 200 µM | –
COc1cc2c(cc1OC)C(Cc1ccc(OC)c(OC)c1Oc1ccccc1)N(C)CC2 (stereo not given) | – | – | inactive
CC(SC(=O)Nc1ccc(N=Nc2ccccc2)cc1)C(=O)O (stereo not given) | – | – | inactive
O=C(O)c1cc(-n2c(-c3ccccc3)cc3c2CCc2ccccc2-3)ccc1O | – | – | inactive
CN(C)N=Nc1ccc2[nH]c(=O)[nH]c2c1 | > 200 | 102 µM | –
CC(C)CC12CC3CCC(CNC1=O)C32C (stereo not given) | – | – | inactive
CCOC(=O)CCC(NC(=O)C(Cc1ccc([N+](=O)[O-])cc1)NC(=O)OC(C)(C)C)C(=O)NC(CCC(=O)OCC)C(=O)OCC (stereo not given) (Boc-[Phe(4-NO2)]-Glu(OEt)-Glu(OEt)-OEt; configuration not given here) | > 200 | 9.77 µM | –
CC(=O)Oc1cc2c(cc1OC(C)=O)[C@H]1CC[C@]3(C)[C@@H](OC(C)=O)CC[C@H]3[C@@H]1CC2 | > 200 | 10 µM | –
[Ni+2].[O-]/C(=N\N=C/c1cccc(C(F)(F)F)c1)c1ccncc1.[O-]/C(=N\N=C\c1cccc(C(F)(F)F)c1)c1ccncc1 | > 100 | 15.8 µM | –
CN(CCc1ccccn1)C(=S)N/N=C/c1ccccn1 | > 0.2 | 0.0251 µM | –
CCOC(=O)/C(C=Nc1c(C)n(C)n(-c2ccccc2)c1=O)=C(/O)c1ccccc1 | > 200 | > 200 µM | –
CCOC(=O)C1(N=O)CCCCC1=O (stereo not given) | > 200 | > 200 µM | –
CC(=O)/C(=C/n1c(=S)sc2ccccc21)C(=O)Nc1ccccc1 | > 200 | 138 µM | –
Clc1ccc(CNCCCNCc2ccc(Cl)c(Cl)c2)cc1Cl | > 200 | 15.8 µM | –
CC1=NNC(=O)C1C(C/C(=N/O)c1c[nH]c2ccccc12)C(=O)O (stereo not given) | > 100 | > 100 µM | –
Oc1ccc2ccccc2c1CN1CCOCC1 | 132 | 186 µM | –
CCNc1cc2c3c(c1)CCCN3CCC2 | > 200 | 8.51 µM | –
CO[C@H]1C[C@H](O[C@H]2CC[C@]3(C=O)[C@H]4CC[C@]5(C)[C@@H](C6=CC(=O)OC6)CC[C@]5(O)[C@@H]4CC[C@]3(O)C2)O[C@H](C)[C@H]1O | – | – | inactive
CCn1c2ccccc2c2cc(N=Nc3ccc(C#N)cc3)ccc21 | 10.7 | > 200 µM | –
CCOC(=O)c1ccc(CSc2ccccc2)cc1 | > 26.3 | > 26.3 µM | –
CCOC(=O)N1CCN(C(=O)COc2cc3c(O)c4c(O)c(C)c5c(c24)C(=O)C(C)(O/C=C/C(OC)C(C)C(OC(C)=O)C(C)C(O)C(C)C(O)C(C)/C=C/C=C(\C)C(=O)N3)O5)CC1 (stereo not given) | > 200 | 13.5 µM | –
COc1ccc2c(c1)C(=O)C1CC(=O)CCC21 (stereo not given) | > 288 | > 288 µM | –

Structure (SMILES) | EC50 [µM] | IC50 | outcome
CC(C)c1cc2c(cc1S(=O)(=O)O)[C@@]1(C)CCC[C@@](C)(C(=O)O)C1CC2 (stereo not given in full) | > 200 | > 200 µM | –
COc1ccc(/C=C2\C(=O)Nc3ccccc32)cc1OC | > 1.95 | > 1.95 µM | –
CC(C)Cc1cnc(CC(C)C)c(-c2cc3ccccc3[nH]2)n1 | > 8.91 | > 8.91 µM | –
COc1ccc2nccc(NCCCN3CCN(CCCNc4ccnc5ccc(OC)cc45)CC3)c2c1 | > 0.537 | 0.105 µM | –
CCOC(=O)[C@@]12C[C@](/C=C/OC)(O[Si](C)(C)C)[C@@]13c1cc(OC)c(OC)cc1CCN3C(=O)C2O (stereo not given in full) | > 200 | > 200 µM | –
CCCCc1ccc(N2C(=O)c3cc([N+](=O)[O-])cnc3S2(=O)=O)cc1 | > 2 | 0.479 µM | –
N=C(N)SSC(=N)N | 70.8 | > 100 µM | –
CCCCCCCCCCCCC/C=C/C(O)C(CO)NC(=O)CCCCC (stereo not given) | – | – | inactive
COc1ccc(O)c(/C=N/NC(=S)N2CCCCC2)c1 | > 200 | 8.13 µM | –
CN1CCN(C(=S)N(C)C(=O)c2ccco2)CC1 | > 933 | > 933 µM | –
c1ccc(CN2COc3ccc4c5c(ccc4c3C2)OCN(Cc2ccccc2)C5)cc1 | > 2.45 | > 2.45 µM | –
COc1ccc(N=C2C(=Nc3ccc(OC)cc3)N(S(=O)(=O)c3ccccc3)C(=S)N2c2ccccc2)cc1 | > 200 | > 200 µM | –
CCNC(=S)NNC(=O)c1nsc2ccccc12 | > 339 | 186 µM | –
COC(=O)/C(=C(/C)c1ccco1)P(=O)(OC)OC | > 200 | > 200 µM | –
COC1=CC(=O)c2ccccc2C1(CCC=C(C)C)C1=NC(C)(C)CO1 (stereo not given) | – | – | inactive
O=C1CC(c2ccc(O)cc2)C2(O1)C(=O)OC1C(O)COC12O (stereo not given) | – | – | inactive
COC(=O)c1sc2c(Cl)c(Cl)sc2c1Cl | > 50.1 | > 50.1 µM | –
CC(C)=CCOc1cc(O)c2c(c1)C(=O)c1cc(C)cc(O)c1C2=O | > 50.1 | > 50.1 µM | –
O=c1[nH]cnc2[nH]ncc12 | > 200 | > 200 µM | –
CN(C(=O)c1cccs1)C(=S)N1CCN(c2ccccn2)CC1 | > 195 | 110 µM | –
S=C(c1c[nH]c2ccccc12)N1CCN(Cc2ccccc2)CC1 | > 200 | 37.2 µM | –
CCCCCCCCCCCCCCCC(=O)OCC1CCCN2CCCCC12 (stereo not given) | > 200 | > 200 µM | –

Structure (SMILES) | EC50 [µM] | IC50 | outcome
C[C@H]1Oc2c3c(c4ccc(=O)oc4c2C(=O)[C@@H]1C)OC(C)(C)C=C3 | > 200 | > 200 µM | –
CCCOC(=O)c1cc(OC(C)=O)c2c(OC)ccc(OC)c2c1 | > 40.7 | > 40.7 µM | –
CSCC1CC(c2ccc(Cl)cc2)=NO1 (stereo not given) | > 107 | > 107 µM | –
O=c1c2c(sc3ccccc13)CCC2 | > 151 | > 151 µM | –
CC(C)n1c(=O)c2nn3c(=O)n(C(C)C)c(=O)c3nn2c1=O | > 200 | > 200 µM | –
O=C1C(Cl)C(c2ccccc2)N1n1cnc2ccccc2c1=O (stereo not given) | > 79.4 | > 79.4 µM | –
O=S(=O)(O)c1c(Cl)c(Cl)c(O)c2ncccc12 | > 200 | 1.17 µM | –
O=C1c2ccccc2CCC1C(O)(C(F)(F)F)C(F)(F)F (stereo not given) | > 200 | > 200 µM | –
COC(=O)C(C(=O)C(=O)NC1Nc2ccc(C)cc2S1)c1nc2ccc(Cl)cc2[nH]c1=O (stereo not given) | > 28.8 | > 28.8 µM | –
Cn1c(=O)[nH]n(C2Cn3c(=O)n(C)c(=O)n3-c3ccccc32)c1=O (stereo not given) | > 200 | > 200 µM | –
COc1c(Cl)cc(C(=CCC(=O)O)c2cc(Cl)c(OC)c(C(=O)O)c2)cc1C(=O)O | 30.2 | > 200 µM | –
CC(=O)N(O)CCCCCNC(=O)CCC(=O)N(O)CCCCCNC(=O)CCC(=O)N(O)CCCCCN | > 110 | 4.57 µM and 3.63 µM | –
COC(=O)C1=CCON(c2ccccc2)C1c1ccccc1 (stereo not given) | > 45.7 | – | –
CC(C)(C)C1=Cc2cc3cc(C(C)(C)C)[nH]c(=O)c3cc2S(=O)(=O)N1 | > 7.59 | > 7.59 µM | –
O=c1cc(CCl)n2cnc3c(ncn3C3OC(CO)C(O)C3O)c2n1 (stereo not given) | – | – | inactive
O=c1[nH]c(Nc2nc3ccccc3[nH]2)nc2c1CCC2 | > 200 | > 200 µM | –
COC(=O)[C@@]1(C)CCC[C@]2(C)C3(O)C(C)C(=O)O[C@H](c4ccoc4)C3C(OC(C)=O)C21O (stereo not given in full) | > 200 | > 200 µM | –
Cc1cc2oc(=O)[nH]c(=S)c2c(C)c1C | > 17 | > 17 µM | –
CC1(C)COC(c2cccc(C(=O)c3ccccc3)c2)=N1 | > 200 | 57.5 µM | –
